Assay [1] concerns the target T1, LgasBSHa (Lactobacillus gasseri, UniProt A0A805Z5R7).
T1 construct: gene bsh; heterologously expressed and purified; homotetramer, neighbouring monomer donates loop to active site
T1 sequence (A0A805Z5R7 2-316): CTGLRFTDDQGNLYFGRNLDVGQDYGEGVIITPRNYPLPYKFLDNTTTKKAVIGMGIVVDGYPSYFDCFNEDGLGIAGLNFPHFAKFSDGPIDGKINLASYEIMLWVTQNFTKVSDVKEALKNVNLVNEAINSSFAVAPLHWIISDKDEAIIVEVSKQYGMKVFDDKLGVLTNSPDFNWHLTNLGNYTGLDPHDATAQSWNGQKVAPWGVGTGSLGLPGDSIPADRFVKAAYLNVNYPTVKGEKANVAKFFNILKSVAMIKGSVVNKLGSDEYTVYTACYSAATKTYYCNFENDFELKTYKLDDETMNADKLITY
Nature of the assay: X-ray crystallography. In kind it is binding. The following applies: active site.

For assay [2], the target named is T2, LingBSH (Limosilactobacillus ingluviei, UniProt A0A0R1U3N2).
T2 construct: gene FC43_GL000624; heterologously expressed and purified; homotetramer; species inferred from the abbreviation Ling
T2 sequence (A0A0R1U3N2 2-327): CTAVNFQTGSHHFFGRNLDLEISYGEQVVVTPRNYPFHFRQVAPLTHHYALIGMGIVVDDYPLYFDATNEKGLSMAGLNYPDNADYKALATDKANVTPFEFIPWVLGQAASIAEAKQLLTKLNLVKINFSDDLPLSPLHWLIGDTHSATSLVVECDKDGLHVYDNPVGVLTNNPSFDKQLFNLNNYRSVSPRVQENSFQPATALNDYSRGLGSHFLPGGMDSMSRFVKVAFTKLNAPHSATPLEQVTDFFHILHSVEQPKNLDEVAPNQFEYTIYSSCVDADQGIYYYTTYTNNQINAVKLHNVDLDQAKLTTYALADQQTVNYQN
Briefly: deconjugation of AA-CA pool by LC-IMS-MS. The note with it: pool of CA conjugated to 22 amino acids. In kind it is biochemical.

`C[C@H](CCC(=O)O)[C@H]1CC[C@H]2[C@@H]3[C@H](O)C[C@@H]4C[C@H](O)CC[C@]4(C)[C@H]3CC[C@]12C` [CDCA]: the X-ray crystallography result in assay [1] (ternary complex with taurine) is recorded as “LgasBSHa was resolved in complexes with taurine or taurine plus CDCA”.
For `NCCS(=O)(=O)O` [taurine], the X-ray crystallography entry in assay [1] (complexes with taurine alone and with taurine plus CDCA) is on record as “LgasBSHa was resolved in complexes with taurine or taurine plus CDCA”.
With `C[C@H](CCC(=O)N[C@@H](CO)C(=O)O)[C@H]1CC[C@H]2[C@@H]3[C@H](O)C[C@@H]4C[C@H](O)CC[C@]4(C)[C@H]3C[C@H](O)[C@]12C` [Ser-CA], the “% deconjugation after 5 minutes” value in assay [2] (also purified Ser-CA (enzyme not named in that sentence)) is “Ala and Ser-conjugated BAs are efficiently processed”.
Regarding `C[C@H](NC(=O)CC[C@@H](C)[C@H]1CC[C@H]2[C@@H]3[C@H](O)C[C@@H]4C[C@H](O)CC[C@]4(C)[C@H]3C[C@H](O)[C@]12C)C(=O)O` [Ala-CA], the “% deconjugation after 5 minutes” value in assay [2] (also purified Ala-CA (enzyme not named in that sentence)) is “Ala and Ser-conjugated BAs are efficiently processed”.

The values above are taken from article doi:10.1101/2022.03.24.485529v3, “Distinct bile salt hydrolase substrate preferences dictate C. difficile pathogenesis” (biorxiv, 2022).
